The values below come from the supplement of paper PMC12137928.

Where a name gives a salt, the structure may show the parent alone.

The test system of this experiment is HCT116. To be noted: 72 h. The procedure, abridged:
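After seeding at 250 cells per well in 1536-well plates, HCT116 cells were given 5 h to attach. CellTiter-Glo luminescence, scaled to 0% for vehicle and -100% for positive control, was pattern-corrected. Fitting with a four-parameter Hill model produced IC50 and maximal efficacy.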

Consider `C#C[C@]1(O)CC[C@H]2[C@@H]3CCc4cc(OC)ccc4[C@H]3CC[C@@]21C` [Mestranol], for which the IC50 cell viability was above 45.8 µM (ICRF193 0 nM) and above 45.8 µM (ICRF193 200 nM).

On to `Cc1cc(O)c2c(c1)O[C@@]1(C)CC[C@H]3C(C)(C)CCC[C@]34CO[C@@H]2[C@H]41` [Siccanin], for which the IC50 cell viability (ICRF193 0 nM) is above 45.8 µM and the IC50 cell viability (ICRF193 200 nM) was above 45.8 µM.

Compound `Cc1ccc(-c2ncc(Cl)cc2-c2ccc(S(C)(=O)=O)cc2)cn1` [Etoricoxib] registered an IC50 cell viability (ICRF193 0 nM) above 45.8 µM and an IC50 cell viability (ICRF193 200 nM) above 45.8 µM.

For `CC1=CC(=O)c2ccccc2C1=O` [Menadione], the IC50 cell viability is above 45.8 µM (ICRF193 0 nM) and above 45.8 µM (ICRF193 200 nM).

Regarding `CCCCCCCCCCCCOC(=O)CS(=O)(=O)O` [SODIUM LAURYL SULFOACETATE], the IC50 cell viability was above 45.8 µM (ICRF193 0 nM) and above 45.8 µM (ICRF193 200 nM).

On to `CNC(=O)c1c(I)c(NC(=O)CCCCC(=O)Nc2c(I)c(C(=O)O)c(I)c(C(=O)NC)c2I)c(I)c(C(=O)O)c1I` [Iocarmic acid], for which the IC50 cell viability by setting is: (ICRF193 0 nM) above 45.8 µM; (ICRF193 200 nM) above 45.8 µM.

Take `CO[C@@]1(NC(=O)Cc2cccs2)C(=O)N2C(C(=O)O)=C(COC(N)=O)CS[C@@H]21` [Cefoxitin]: the IC50 cell viability by setting is: (ICRF193 0 nM) above 45.8 µM; (ICRF193 200 nM) above 45.8 µM.

Turning to `O=C1C[C@@H]2OCC=C3CN4CC[C@]56c7ccccc7N1[C@H]5[C@H]2[C@H]3C[C@H]46` [Strychnine], the IC50 cell viability is, setting by setting: (ICRF193 0 nM) above 45.8 µM; (ICRF193 200 nM) above 45.8 µM.

On to `NS(=O)(=O)c1cc2c(cc1Cl)N=CNS2(=O)=O` [Chlorothiazide], for which the IC50 cell viability by setting is: (ICRF193 0 nM) above 45.8 µM; (ICRF193 200 nM) above 45.8 µM.

`CN1N=C2CCN(C(=O)[C@@H](COCc3ccccc3)NC(=O)C(C)(C)N)C[C@@]2(Cc2ccccc2)C1=O` [Capromorelin] showed an IC50 cell viability (ICRF193 0 nM) above 45.8 µM and an IC50 cell viability (ICRF193 200 nM) above 45.8 µM.

Turning to `CC(C(=O)O)c1ccc2c(c1)Cc1cccnc1O2` (configuration not stated) [Pranoprofen], the IC50 cell viability runs as follows: (ICRF193 0 nM) above 45.8 µM; (ICRF193 200 nM) above 45.8 µM.

Turning to `CS(=O)(=O)c1ccc([C@H](O)[C@@H](COC(=O)CN)NC(=O)C(Cl)Cl)cc1` [Thiamphenicol glycinate], the IC50 cell viability was above 45.8 µM (ICRF193 0 nM) and above 45.8 µM (ICRF193 200 nM).

Regarding `CC(=O)OCC(=O)[C@@]1(O)CC[C@H]2[C@@H]3CCC4=CC(=O)C=C[C@]4(C)[C@@]3(F)[C@@H](O)C[C@@]21C` [Isoflupredone acetate], the IC50 cell viability is, setting by setting: (ICRF193 0 nM) above 45.8 µM; (ICRF193 200 nM) above 45.8 µM.

In turn, `C[C@]12CC[C@H]3[C@@H](CCC4=C(O)C(=O)CC[C@@H]43)[C@@H]1CC[C@@H]2OC(=O)CCC1CCCC1` [Oxabolone cipioncate] showed an IC50 cell viability (ICRF193 0 nM) above 45.8 µM and an IC50 cell viability (ICRF193 200 nM) above 45.8 µM.

`COc1ccc(C2C(=O)c3ccccc3C2=O)cc1` [Anisindione]: the IC50 cell viability by setting is: (ICRF193 0 nM) above 45.8 µM; (ICRF193 200 nM) above 45.8 µM.

Turning to `O=S(=O)(O)CC(S)CS` (configuration not stated) [Sodium 2,3-dimercaptopropanesulfonate monohydrate], the IC50 cell viability is, setting by setting: (ICRF193 0 nM) above 45.8 µM; (ICRF193 200 nM) above 45.8 µM.

For the compound `Cc1[nH]cnc1CN1CCc2c(c3ccccc3n2C)C1=O` [Alosetron hydrochloride], the IC50 cell viability by setting is: (ICRF193 0 nM) above 45.8 µM; (ICRF193 200 nM) above 45.8 µM.

On to `CCC(O)c1ccccc1` (configuration not stated) [1-Phenyl-1-propanol], for which the IC50 cell viability runs as follows: (ICRF193 0 nM) above 45.8 µM; (ICRF193 200 nM) above 45.8 µM.

Regarding `CC(c1cc2ccccc2s1)N(O)C(N)=O` (configuration not stated) [Zileuton], the IC50 cell viability (ICRF193 0 nM) is above 45.8 µM and the IC50 cell viability (ICRF193 200 nM) was above 45.8 µM.

On to `O=C(O)c1cn(C2CC2)c2cc(N3CCNCC3)c(F)cc2c1=O` [Ciprofloxacin], for which the IC50 cell viability is above 45.8 µM (ICRF193 0 nM) and above 45.8 µM (ICRF193 200 nM).

`OC(CN1CCCCC1)c1cc(-c2ccccc2)on1` (configuration not stated) [Perisoxal citrate]: the IC50 cell viability (ICRF193 0 nM) was above 45.8 µM and the IC50 cell viability (ICRF193 200 nM) is above 45.8 µM.

`CC(C)(C)NCC(O)COc1ccccc1C#N` (configuration not stated) [BUNITROLOL]: the IC50 cell viability is above 45.8 µM (ICRF193 0 nM) and above 45.8 µM (ICRF193 200 nM).

For the compound `COc1ccc(CN(CCN(C)C)c2ccccn2)cc1` [Pyrilamine], the IC50 cell viability by setting is: (ICRF193 0 nM) above 45.8 µM; (ICRF193 200 nM) above 45.8 µM.

`CS(=O)(=O)OC[C@H](O)[C@@H](O)COS(C)(=O)=O` [Treosulfan]: the IC50 cell viability by setting is: (ICRF193 0 nM) above 45.8 µM; (ICRF193 200 nM) above 45.8 µM.

Consider `Cc1ccc(C2(O)CCN(CCCC(=O)c3ccc(F)cc3)CC2)cc1` [Moperone], for which the IC50 cell viability is above 45.8 µM (ICRF193 0 nM) and above 45.8 µM (ICRF193 200 nM).

As to `CCCCC(CC)COc1ccc(-c2nc(-c3ccc(OC)cc3)nc(-c3ccc(OCC(CC)CCCC)cc3O)n2)c(O)c1` (configuration not stated) [BEMOTRIZINOL], the IC50 cell viability runs as follows: (ICRF193 0 nM) above 45.8 µM; (ICRF193 200 nM) above 45.8 µM.
